26 compounds from patent US5698547A, “Cephalosporin antibiotics” (Microcide Pharmaceuticals, Inc., priority 1995, dated 1997) can be followed below.

The structures appear in SMILES notation. In brackets after ≈: the same amount, converted by molar mass. Where a name gives a salt, the structure may show the parent alone.

The test deals with S. aureus Col (Meth^R) (lac^-). Nature of the test: MIC by agar dilution, S. aureus Col (Meth^R) (lac^-). The class given is cell-based. To be noted: Staphylococcus aureus; agar dilution; S. aureus Col (Meth^R) (lac^-); read-out: MIC. As for the experimental part:
The compounds of the invention were evaluated against several β-lactamresistant bacteria strains by determining the minimum inhibitory concentration (MIC, μg/ml) of each compound with respect to each strain. The MIC, the lowest concentration of antibiotic which inhibits growth of the test organism, was determined by the agar dilution method.
To determine the MIC for bacterial isolates, the test compound was incorporated in a series of two-fold dilutions into liquified Mueller-Hinton agar. Upon solidification, a number of different bacterial strains were spot inoculated with a replicating device onto the agar surface. […] The procedures used in these studies have been standardized by the National Committee for Clinical Laboratory Standards (NCCLS), as per the NCCLS publication entitled METHODS FOR DILUTION ANTIMICROBIAL SUSCEPTIBILITY TESTS (1991), which is incorporated herein by reference.
Aliquots of antimicrobial agents were prepared in phosphate buffered saline (PBS) at pH 7.2. Tween 20 or DMSO was used as a solubilizing vehicle as needed. Standard methods of vortexing, sonicating and gentle heat were used to facilitate solubilizing the test agent. Typically, the concentration of the stock solution was 10× that of the highest drug concentration tested. A 1.28 mg/mL stock solution was used with a subsequent highest working concentration of 128 μg/mL. Serial two-fold dilutions were done through ≤0.25 μg/mL. Each drug level was tested in duplicate. Two-fold drug dilutions were done in sterile 50 mL tubes with a final drug volume of 5 mL. Upon the addition of 45 mL of molten agar, a 10-fold dilution resulted. Two, 25 mL. plates were then poured into 15×150 mm square Petri plates with grids and allowed to harden.
A control plate with a reference drug, either cefotaxime, vancomycin or imipenem, was used as the positive growth control. Stock concentrations of reference antibiotics were prepared and frozen at -80° C. Upon preparation, the control plates were sealed and stored in the refrigerator for up to 1 week prior to use; however, imipenem control plates had to be prepared just prior to use. All test plates were used within 24 hours of preparation.
Satisfactory results were obtained where the inoculum contained about 10^4 colony forming units (cfu) ±0.5 logs. Starting with pure cultures of the test isolates on agar plates, a few isolated colonies were transferred to a tube of nutrient broth and allowed to grow 4-6 hours at 35°-36° C. to reach log-phase growth. Dropwise addition of the broth culture to PBS was done to match a 0.5 McFarland turbidity standard equal to 10^8 cfu/mL. This was further diluted ten-fold in PBS to reach a working inoculum concentration of 10^7 cfu/mL. When 1 μL of the working inoculum was applied to the agar surface a concentration of about 10^4 cfu per spot was obtained.
Disposable sterile 1 μL loops were used to inoculate test plates, with each isolate in a designated grid on the agar plate. An alternate method of inoculation involved the use of a replica plater, a device with 48 steel pins allowing the simultaneous inoculation of multiple isolates. After the spots had dried, the plates were incubated at 35°-36° C. for 16-20 hours. Endpoints were assessed as the minimum inhibitory concentration (MIC) of antimicrobial agent.
The novel agents of this invention are notable for their enhanced activity against S. aureus Col and Enterococci (E. faecium and E. faecalis). The S. aureus Col strain is a high-level PBP2a producer, whereas S. aureus Col 8A, its isogenic partner, lacks PBP2a. […] Thus, the compounds of the present invention are effective against PBP2a-producing bacteria.
Background: Agar dilution tests growth on a series of plates holding different concentrations.
By MIC is commonly meant the lowest concentration found to suppress growth. For the compound `O=C(Cc1ccccc1)N[C@@H]1C(=O)N2C(C(=O)O)=C(Sc3ccc(Br)cc3Br)CS[C@H]12` [Cmpd 39, (7R)-7-[(Phenylacetyl)amino]-3-(2,4-dibromophenylthio)-3-cephem-4-carboxylic acid], the minimum inhibitory concentration (MIC) was found to be 0.5 µg/mL (≈ 0.856 µM). `O=C(Cc1ccccc1)N[C@@H]1C(=O)N2C(C(=O)O)=C(Sc3cccc(Cl)c3Cl)CS[C@H]12` [Cmpd 24, (7R)-7-[(Phenylacetyl)amino]-3-(2,3-dichlorophenylthio)-3-cephem-4-carboxylic acid]: the MIC was 1 µg/mL (≈ 2.02 µM). For `COc1ccc(-n2nccc2SC2=C(C(=O)O)N3C(=O)[C@@H](NC(=O)Cc4ccccc4)[C@H]3SC2)cc1` [Cmpd 114, (7R)-7-[(Phenylacetyl)amino]-3-(1-N-(4-methoxyphenyl)pyrazol-5-ylthio)-3-cephem-4-carboxylic acid], the MIC is 4 µg/mL (≈ 7.65 µM). Next, `Nc1nc(/C(=N/OCCF)C(=O)N[C@@H]2C(=O)N3C(C(=O)O)=C(Sc4ccnn4-c4ccccc4)CS[C@H]23)cs1` [Cmpd 90, (7R)-7-[(Z)-2-(aminothiazol-4-yl)-2-(2-fluoroethyloxyimino)acetamido]-3-(1-N-phenylpyrazol-5-ylthio)-3-cephem-4-carboxylic acid]: 8 µg/mL (≈ 13.6 µM); `Nc1nc(/C(=N/OC2CCCC2)C(=O)N[C@@H]2C(=O)N3C(C(=O)O)=C(Sc4cccnc4-c4ccccc4)CS[C@H]23)cs1` [Cmpd 86, (7R)-7-[(Z)-2-(aminothiazol-4-yl)-2-(cyclopentyloxyimino)acetamido]-3-(2-phenylpyridin-3-ylthio)-3-cephem-4-carboxylic acid]: 8 µg/mL (≈ 12.8 µM). Next, `C=Cc1ccccc1SC1=C(C(=O)O)N2C(=O)[C@@H](NC(=O)Cc3ccccc3)[C@H]2SC1` [Cmpd 36, (7R)-7-[(Phenylacetyl)amino]-3-(2-vinylphenylthio)-3-cephem-4-carboxylic acid]: 2 µg/mL (≈ 4.42 µM).

`Cn1nnnc1SCc1ccccc1SC1=C(C(=O)O)N2C(=O)[C@@H](NC(=O)Cc3ccccc3)[C@H]2SC1` [Cmpd 71]: the MIC turned out to be 16 µg/mL (≈ 28.8 µM). Next, `N=C(N)SCc1ccccc1SC1=C(C(=O)O)N2C(=O)[C@@H](NC(=O)/C(=N\O)c3ccccc3)[C@H]2SC1` [Cmpd 136, (7R)-7-[(Z)-2-(Phenyl)-2-(hydroxyimino)acetamido]-3-(2-isothiouroniummethylphenylthio)-3-cephem-4-carboxylate, inner salt]: 2 µg/mL; `CC(=O)NC(=N)SCc1ccccc1SC1=C(C(=O)O)N2C(=O)[C@@H](NC(=O)Cc3ccccc3)[C@H]2SC1` [Cmpd 78, (7R)-7-[(Phenylacetyl)amino]-3-(2-N-acetylamidinothiomethylphenylthio)-3-cephem-4-carboxylic acid]: 4 µg/mL (≈ 7.19 µM). With `O=C(Cc1ccccc1)N[C@@H]1C(=O)N2C(C(=O)O)=C(Sc3ccccc3CSc3ccncc3)CS[C@H]12` [Cmpd 70], the MIC stood at 4 µg/mL (≈ 7.28 µM). Take `N=C(N)SCc1ccccc1SC1=C(C(=O)O)N2C(=O)[C@@H](NC(=O)Cc3ccc(O)cc3)[C@H]2SC1` [Cmpd 99, (7R)-7-[((4-Hydroxyphenyl)acetyl)amino]-3-(2-isothiouroniummethylphenylthio)-3-cephem-4-carboxylic acid, inner salt]: the MIC came out at 4 µg/mL. On to `O=C(Cc1ccccc1)N[C@@H]1C(=O)N2C(C(=O)O)=C(Sc3ccccc3CSc3ncccn3)CS[C@H]12` [Cmpd 75], for which the MIC was found to be 8 µg/mL (≈ 14.5 µM). In the case of `COc1ccc(CC(=O)N[C@@H]2C(=O)N3C(C(=O)O)=C(Sc4cc(Cl)ccc4Cl)CS[C@H]23)cc1` [Cmpd 32, (7R)-7-[(p-Methoxyphenylacetyl)amino]-3-(2,5-dichlorophenylthio)-3-cephem-4-carboxylic acid], the minimum inhibitory concentration (MIC) was 1 µg/mL (≈ 1.9 µM). Next, `O=C(Cc1ccccc1)N[C@@H]1C(=O)N2C(C(=O)O)=C(Sc3ccnn3-c3cccc([N+](=O)[O-])c3)CS[C@H]12` [Cmpd 113, (7R)-7-[(Phenylacetyl)amino]-3-(1-N-(3-nitrophenyl)pyrazol-5-ylthio)-3-cephem-4-carboxylic acid]: 4 µg/mL (≈ 7.44 µM); `N=C(N)SCCc1ccccc1SC1=C(C(=O)O)N2C(=O)[C@@H](NC(=O)Cc3ccccc3)[C@H]2SC1` [Cmpd 100, (7R)-7-[(Phenylacetyl)amino]-3-(2-(2-isothiouronium)ethylphenylthio)-3-cephem-4-carboxylate, inner salt]: 4 µg/mL; `CSCC(=O)N[C@@H]1C(=O)N2C(C(=O)O)=C(Sc3ccccc3CNC(=N)N)CS[C@H]12` [Cmpd 135, (7R)-7-[(Methylthioacetyl)amino]-3-(2-guanidiniummethylphenylthio)-3-cephem-4-carboxylate, inner salt]: 8 µg/mL. Regarding `CSc1ccccc1SC1=C(C(=O)O)N2C(=O)[C@@H](NC(=O)Cc3ccccc3)[C@H]2SC1` [Cmpd 44, (7R)-7-[(Phenylacetyl)amino]-3-(2-methylthiophenylthio)-3-cephem-4-carboxylic acid], the MIC came out at 2 µg/mL (≈ 4.23 µM).

For `O=C(Cc1ccco1)N[C@@H]1C(=O)N2C(C(=O)O)=C(Sc3ccnn3-c3ccccc3)CS[C@H]12` [Cmpd 111, (7R)-7-[(2-furylacetyl)amino]-3-(1-N-phenylpyrazol-5-ylthio)-3-cephem-4-carboxylic acid], the MIC was 8 µg/mL (≈ 16.6 µM). As to `Nc1nc(/C(=N/O)C(=O)N[C@@H]2C(=O)N3C(C(=O)O)=C(Sc4ccccc4-c4ccccc4)CS[C@H]23)cs1` [Cmpd 42, (7R)-7-[(Z)-2-(aminothiazol-4-yl)-2-(hydroxyimino)acetamido]-3-(2-biphenylthio)-3-cephem-4-carboxylic acid], the MIC turned out to be 4 µg/mL (≈ 7.22 µM). As for `N#CCC(=O)N[C@@H]1C(=O)N2C(C(=O)O)=C(Sc3ccccc3-c3ccccc3)CS[C@H]12` [Cmpd 34, (7R)-7-[(Cyanoacetyl)amino]-3-(2-biphenylthio)-3-cephem-4-carboxylic acid], the MIC came to 2 µg/mL (≈ 4.43 µM).

Take `N#Cc1ccc(SC2=C(C(=O)O)N3C(=O)[C@@H](NC(=O)Cc4ccccc4)[C@H]3SC2)c(C#N)c1` [Cmpd 51, (7R)-7-[(Phenylacetyl)amino]-3-(2,4-dicyanophenylthio)-3-cephem-4-carboxylic acid]: the MIC came to 4 µg/mL (≈ 8.39 µM). Consider `N#CCC(=O)N[C@@H]1C(=O)N2C(C(=O)O)=C(Sc3cccnc3-c3ccccc3)CS[C@H]12` [Cmpd 85, (7R)-7-[(Cyanoacetyl)amino]-3-(2-phenylpyridin-3-ylthio)-3-cephem-4-carboxylic acid], for which the MIC was determined as 4 µg/mL (≈ 8.84 µM). Take `Nc1nnc(SCC(=O)N[C@@H]2C(=O)N3C(C(=O)O)=C(Sc4ccnn4-c4ccccc4)CS[C@H]23)s1` [Cmpd 120]: the MIC stood at 8 µg/mL (≈ 14.6 µM).

As to `CCN=C(NCC)SCc1ccccc1SC1=C(C(=O)O)N2C(=O)[C@@H](NC(=O)Cc3ccccc3)[C@H]2SC1` [Cmpd 74, (7R)-7-[(Phenylacetyl)amino]-3-(2-N,N'-diethylisothiouroniummethylphenylthio)-3-cephem-4-carboxylate, inner salt], the MIC is 16 µg/mL.

On to `O=C(COc1ccc(Cl)cc1)N[C@@H]1C(=O)N2C(C(=O)O)=C(Sc3ccccc3I)CS[C@H]12` [Cmpd 30, (7R)-7-[(p-Chlorophenoxyacetyl)amino]-3-(o-iodophenylthio)-3-cephem-4-carboxylic acid], for which the MIC is 0.5 µg/mL (≈ 0.829 µM). Consider `O=C(Cc1ccccc1)N[C@@H]1C(=O)N2C(C(=O)O)=C(Sc3ccccc3CSc3ncn[nH]3)CS[C@H]12` [Cmpd 67, (7R)-7-[(Phenylacetyl)amino]-3-(2-(1,2,4-triazol-5-ylthiomethyl)phenylthio)-3-cephem-4-carboxylic acid], for which the MIC was 4 µg/mL (≈ 7.41 µM).
